This passage reports inhibition and Activity results from ChEMBL document CHEMBL3351624, “A semi-synthetic derivative of artemisinin, artesunate inhibits prostaglandin E2 production in LPS/IFNγ-activated BV2 microglia” (Bioorg Med Chem, 2014).

The source made the active and inactive calls. No cut-off for these calls is given here.

Data set [1] addresses T1, Nuclear factor NF-kappa-B complex (Homo sapiens) (UniProt Q00653+P19838+Q04206). The experiment in a line: Inhibition of NFkappaB (unknown origin) expressed in HEK293 cells assessed as reduction in TNFalpha-induced gene transcription at 0.5 to 4 uM pre-incubated for 30 mins prior to stimulation with TNFalpha for 6 hrs by luciferase reporter gene assay. In kind it is cell-based. (In a reporter assay the amount or activity of a reporter protein is the signal.)

The target in data set [2] is T2, Inhibitor of nuclear factor kappa-B kinase subunit beta (Mus musculus) (UniProt O88351).
T2 sequence (whole entry): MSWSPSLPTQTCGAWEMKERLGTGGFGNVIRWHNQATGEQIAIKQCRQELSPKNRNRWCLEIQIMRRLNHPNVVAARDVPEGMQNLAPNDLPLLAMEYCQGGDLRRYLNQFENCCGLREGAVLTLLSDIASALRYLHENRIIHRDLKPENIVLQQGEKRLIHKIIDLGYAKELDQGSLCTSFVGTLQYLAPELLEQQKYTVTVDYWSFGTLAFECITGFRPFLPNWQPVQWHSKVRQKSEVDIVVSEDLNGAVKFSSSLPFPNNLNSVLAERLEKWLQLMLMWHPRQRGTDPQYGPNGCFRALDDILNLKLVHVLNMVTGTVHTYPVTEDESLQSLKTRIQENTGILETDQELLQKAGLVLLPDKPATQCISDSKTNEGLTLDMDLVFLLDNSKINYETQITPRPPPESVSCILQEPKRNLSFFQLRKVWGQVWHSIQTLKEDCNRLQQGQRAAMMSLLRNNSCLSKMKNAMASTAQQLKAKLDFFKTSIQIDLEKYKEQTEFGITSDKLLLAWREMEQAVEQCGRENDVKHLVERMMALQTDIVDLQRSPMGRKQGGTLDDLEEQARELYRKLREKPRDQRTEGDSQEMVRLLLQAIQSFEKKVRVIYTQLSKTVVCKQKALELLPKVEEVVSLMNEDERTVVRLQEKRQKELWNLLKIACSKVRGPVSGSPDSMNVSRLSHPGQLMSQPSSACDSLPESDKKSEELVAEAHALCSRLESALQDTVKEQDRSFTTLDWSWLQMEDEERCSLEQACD
The experiment in a line: Inhibition of LPS/IFNgamma-induced IKKbeta phosphorylation in mouse BV2 cells at 1 to 4 uM pre-incubated for 30 mins before LPS/IFNgamma challenge for 1 hr by Western blot method. In kind it is cell-based. The settings on record: BV-2. Background: Immunoblotting shows a protein as a band on a membrane.

Data set [3] relates to BV-2. Nature of the data set: Inhibition of IKK in mouse BV2 cells assessed as LPS/IFNgamma-induced IkappaB phosphorylation level at 4 uM pre-incubated for 30 mins before LPS/IFNgamma challenge for 1 hr by Western blot method. On the set-up: scale not given: the % may be the effect or the level left. In kind it is cell-based.
Data set [4] has as its system BV-2. The experiment in a line: Inhibition of IKK in mouse BV2 cells assessed as reduction in LPS/IFNgamma-induced IkappaB degradation at 0.5 to 4 uM pre-incubated for 30 mins before LPS/IFNgamma challenge for 1 hr by Western blot method. In kind it is cell-based.
Data set [5] has as its system BV-2. Nature of the data set: Inhibition of IKK in mouse BV2 cells assessed as LPS/IFNgamma-induced IkappaB phosphorylation level at 0.5 uM pre-incubated for 30 mins before LPS/IFNgamma challenge for 1 hr by Western blot method. In kind it is cell-based. On the set-up: scale not given: the % may be the effect or the level left.
Data set [6] is described as follows: Toxicity against LPS/IFNgamma-induced mouse BV2 cells assessed as cell viability at 0.5 to 4 uM pre-incubated before LPS/IFNgamma challenge and measured 24 hrs post LPS/IFNgamma challenge by MTT assay. In kind it is cell-based. The note with it: bv-2, 24 h. (Tetrazolium dyes change colour on reduction, which living cells bring about.)
For data set [7], the system named is BV-2. Nature of the data set: Antiinflammatory activity in mouse BV2 cells assessed as inhibition of LPS/IFNgamma-induced IL6 production at 0.5 to 4 uM pre-incubated before LPS/IFNgamma challenge and measured 24 hrs post LPS/IFNgamma challenge by ELISA method. In kind it is functional, cell-based.
The test system of data set [8] is BV-2. Nature of the data set: Antiinflammatory activity in mouse BV2 cells assessed as inhibition of LPS/IFNgamma-induced mPGES1 expression at 0.5 to 4 uM after 24 hrs by Western blot. In kind it is functional, cell-based.
The test system of data set [9] is BV-2. The experiment in a line: Inhibition of IKK in mouse BV2 cells assessed as LPS/IFNgamma-induced IkappaB phosphorylation level at 2 uM pre-incubated for 30 mins before LPS/IFNgamma challenge for 1 hr by Western blot method. In kind it is cell-based. Details: scale not given: the % may be the effect or the level left.
Data set [10] can be described thus: Antiinflammatory activity in mouse BV2 cells assessed as LPS/IFNgamma-induced COX2 expression at 4 uM after 24 hrs by Western blot. In kind it is functional, BV-2.
Data set [11] has as its system BV-2. The experiment in a line: Inhibition of IKK in mouse BV2 cells assessed as LPS/IFNgamma-induced IkappaB phosphorylation level at 1 uM pre-incubated for 30 mins before LPS/IFNgamma challenge for 1 hr by Western blot method. Details: scale not given: the % may be the effect or the level left. In kind it is cell-based.
A short description of data set [12]: Antiinflammatory activity in mouse BV2 cells assessed as LPS/IFNgamma-induced PGE2 production at 4 uM after 24 hrs by enzyme immunoassay. In kind it is functional, BV-2.
Data set [13] has as its target T1, Nuclear factor NF-kappa-B complex (Homo sapiens). The experiment in a line: Inhibition of NFkappaB (unknown origin) expressed in HEK293 cells assessed as TNFalpha-induced gene transcription at 4 uM pre-incubated for 30 mins prior to stimulation with TNFalpha for 6 hrs by luciferase reporter gene assay. In kind it is cell-based. Details: scale not given: the % may be the effect or the level left.

The subject of data set [14] is BV-2. Nature of the data set: Inhibition of IKK in mouse BV2 cells assessed as reduction in LPS/IFNgamma-induced IkappaB degradation at 0.5 to 4 uM pre-incubated for 30 mins before LPS/IFNgamma challenge for 1 hr by ELISA method. In kind it is cell-based.
Data set [15] concerns the target T3, Inhibitor of nuclear factor kappa-B kinase subunit alpha (Mus musculus) (UniProt Q60680).
T3 sequence (whole entry): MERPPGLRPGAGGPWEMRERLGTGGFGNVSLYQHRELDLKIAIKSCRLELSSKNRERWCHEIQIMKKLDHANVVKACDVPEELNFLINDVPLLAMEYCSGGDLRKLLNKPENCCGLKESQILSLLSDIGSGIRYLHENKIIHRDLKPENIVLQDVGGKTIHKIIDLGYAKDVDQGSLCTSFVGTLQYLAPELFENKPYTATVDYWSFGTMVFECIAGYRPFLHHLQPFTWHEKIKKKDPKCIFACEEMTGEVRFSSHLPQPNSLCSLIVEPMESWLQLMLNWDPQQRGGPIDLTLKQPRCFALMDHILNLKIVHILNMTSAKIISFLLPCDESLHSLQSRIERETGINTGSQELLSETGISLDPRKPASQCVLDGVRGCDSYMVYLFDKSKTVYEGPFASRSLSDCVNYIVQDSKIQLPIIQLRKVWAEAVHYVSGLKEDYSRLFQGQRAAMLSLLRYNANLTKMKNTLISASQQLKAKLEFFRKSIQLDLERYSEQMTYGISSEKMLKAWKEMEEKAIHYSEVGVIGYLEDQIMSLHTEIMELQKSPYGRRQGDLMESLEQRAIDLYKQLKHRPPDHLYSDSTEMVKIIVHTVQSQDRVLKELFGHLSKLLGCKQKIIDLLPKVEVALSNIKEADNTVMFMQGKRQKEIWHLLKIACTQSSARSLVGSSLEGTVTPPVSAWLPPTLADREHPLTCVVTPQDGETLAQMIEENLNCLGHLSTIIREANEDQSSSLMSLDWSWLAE
The experiment in a line: Inhibition of LPS/IFNgamma-induced IKKalpha phosphorylation in mouse BV2 cells at 1 to 4 uM pre-incubated for 30 mins before LPS/IFNgamma challenge for 1 hr by Western blot method. The note with it: BV-2. In kind it is cell-based.

Data set [16] has as its system BV-2. Nature of the data set: Antiinflammatory activity in mouse BV2 cells assessed as inhibition of LPS/IFNgamma-induced TNFalpha production at 1 to 4 uM pre-incubated before LPS/IFNgamma challenge and measured 24 hrs post LPS/IFNgamma challenge by ELISA method. In kind it is functional, cell-based.
Data set [17] has as its target T4, MAP kinase p38 (Mus musculus) (UniProt P47811+O08911+Q9WUI1+Q9Z1B7). The experiment in a line: Inhibition of p38 in mouse BV2 cells assessed as reduction in LPS/IFNgamma-induced MAPKAPK2 phosphorylation at 1 to 4 uM pre-incubated for 30 mins before LPS/IFNgamma challenge for 1 hr by Western blot method. In kind it is cell-based. The settings on record: BV-2.
Data set [18] has as its system BV-2. Nature of the data set: Antiinflammatory activity in mouse BV2 cells assessed as inhibition of LPS/IFNgamma-induced PGE2 production at 2 uM after 24 hrs by enzyme immunoassay. In kind it is functional, cell-based.
In data set [19] the target is T4, MAP kinase p38 (Mus musculus). Nature of the data set: Inhibition of LPS/IFNgamma-induced p38 phosphorylation in mouse BV2 cells at 1 to 4 uM pre-incubated for 30 mins before LPS/IFNgamma challenge for 1 hr by Western blot method. The note with it: BV-2. In kind it is cell-based.
Data set [20] relates to BV-2. Nature of the data set: Antiinflammatory activity in mouse BV2 cells assessed as inhibition of LPS/IFNgamma-induced COX2 expression at 0.5 to 4 uM after 24 hrs by Western blot. In kind it is functional, cell-based.
For data set [21], the system named is BV-2. Nature of the data set: Inhibition of IKK in mouse BV2 cells assessed as reduction in LPS/IFNgamma-induced IkappaB phosphorylation level at 4 uM pre-incubated for 30 mins before LPS/IFNgamma challenge for 1 hr by ELISA method. In kind it is cell-based.

T1 sequence (P19838 whole entry, looked up): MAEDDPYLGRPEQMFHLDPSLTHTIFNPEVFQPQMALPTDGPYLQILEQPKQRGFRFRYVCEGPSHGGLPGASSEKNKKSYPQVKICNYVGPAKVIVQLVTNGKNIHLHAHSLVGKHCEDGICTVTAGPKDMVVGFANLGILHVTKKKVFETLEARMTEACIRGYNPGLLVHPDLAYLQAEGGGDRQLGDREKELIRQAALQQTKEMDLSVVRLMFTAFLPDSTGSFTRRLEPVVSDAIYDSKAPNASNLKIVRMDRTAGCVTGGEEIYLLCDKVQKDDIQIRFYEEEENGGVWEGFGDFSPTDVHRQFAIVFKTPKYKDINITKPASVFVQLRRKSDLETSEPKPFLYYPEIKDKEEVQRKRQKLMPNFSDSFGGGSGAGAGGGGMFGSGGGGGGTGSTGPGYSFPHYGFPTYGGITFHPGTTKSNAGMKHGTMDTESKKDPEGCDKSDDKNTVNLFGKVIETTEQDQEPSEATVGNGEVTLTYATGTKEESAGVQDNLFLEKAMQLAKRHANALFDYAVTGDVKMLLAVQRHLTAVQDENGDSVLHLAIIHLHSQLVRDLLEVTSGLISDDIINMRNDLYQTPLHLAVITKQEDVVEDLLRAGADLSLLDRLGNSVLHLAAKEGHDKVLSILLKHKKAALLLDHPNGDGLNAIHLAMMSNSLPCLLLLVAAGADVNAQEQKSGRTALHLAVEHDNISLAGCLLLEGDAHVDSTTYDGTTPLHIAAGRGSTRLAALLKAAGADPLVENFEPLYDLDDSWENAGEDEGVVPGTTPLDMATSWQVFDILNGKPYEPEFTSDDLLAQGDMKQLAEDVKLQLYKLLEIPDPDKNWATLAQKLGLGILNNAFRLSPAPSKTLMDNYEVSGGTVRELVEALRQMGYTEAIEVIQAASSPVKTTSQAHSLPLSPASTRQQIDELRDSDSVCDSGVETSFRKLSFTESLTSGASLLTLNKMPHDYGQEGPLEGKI
T1 sequence (Q00653 whole entry, looked up): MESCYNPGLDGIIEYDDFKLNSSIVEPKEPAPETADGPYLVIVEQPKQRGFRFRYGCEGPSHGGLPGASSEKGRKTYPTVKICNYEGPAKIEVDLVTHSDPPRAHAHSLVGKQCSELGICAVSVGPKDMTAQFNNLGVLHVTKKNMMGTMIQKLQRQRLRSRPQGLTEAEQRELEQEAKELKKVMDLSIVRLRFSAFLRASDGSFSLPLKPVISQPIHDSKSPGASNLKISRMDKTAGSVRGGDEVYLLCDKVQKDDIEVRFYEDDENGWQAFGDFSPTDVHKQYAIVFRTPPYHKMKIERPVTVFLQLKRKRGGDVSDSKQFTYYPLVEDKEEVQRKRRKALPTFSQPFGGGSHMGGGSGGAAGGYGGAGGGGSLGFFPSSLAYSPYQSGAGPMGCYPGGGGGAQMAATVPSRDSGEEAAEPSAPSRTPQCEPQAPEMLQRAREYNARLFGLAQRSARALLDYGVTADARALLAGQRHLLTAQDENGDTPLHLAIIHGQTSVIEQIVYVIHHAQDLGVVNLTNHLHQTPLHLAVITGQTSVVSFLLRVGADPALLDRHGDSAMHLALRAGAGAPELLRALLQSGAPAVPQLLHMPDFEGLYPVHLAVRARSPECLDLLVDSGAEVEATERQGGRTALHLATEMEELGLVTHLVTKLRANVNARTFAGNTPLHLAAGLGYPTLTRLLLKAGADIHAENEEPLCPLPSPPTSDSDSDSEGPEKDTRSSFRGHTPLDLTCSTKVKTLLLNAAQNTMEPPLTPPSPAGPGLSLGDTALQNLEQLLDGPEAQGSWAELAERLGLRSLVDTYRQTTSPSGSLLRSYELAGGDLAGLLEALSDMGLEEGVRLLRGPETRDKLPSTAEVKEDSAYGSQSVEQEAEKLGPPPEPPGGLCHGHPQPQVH
T1 sequence (Q04206 whole entry, looked up): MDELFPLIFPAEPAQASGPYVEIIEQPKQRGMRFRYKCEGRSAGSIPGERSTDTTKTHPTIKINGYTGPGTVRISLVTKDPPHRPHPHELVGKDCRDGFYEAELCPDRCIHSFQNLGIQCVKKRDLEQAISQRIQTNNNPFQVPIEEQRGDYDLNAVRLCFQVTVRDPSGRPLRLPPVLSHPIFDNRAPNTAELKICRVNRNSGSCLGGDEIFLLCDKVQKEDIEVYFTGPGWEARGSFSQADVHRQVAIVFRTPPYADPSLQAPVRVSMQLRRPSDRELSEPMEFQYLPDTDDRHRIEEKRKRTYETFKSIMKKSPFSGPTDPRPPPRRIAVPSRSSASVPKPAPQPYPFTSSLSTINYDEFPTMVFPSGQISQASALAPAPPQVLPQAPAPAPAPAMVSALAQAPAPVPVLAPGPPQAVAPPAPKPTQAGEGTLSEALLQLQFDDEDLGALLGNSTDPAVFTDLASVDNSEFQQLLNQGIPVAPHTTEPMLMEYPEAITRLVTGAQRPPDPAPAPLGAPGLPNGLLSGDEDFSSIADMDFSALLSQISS

With `C[C@H]1[C@H](OC(=O)CCC(=O)O)O[C@@H]2O[C@@]3(C)CC[C@H]4[C@H](C)CC[C@@H]1[C@@]24OO3` [ARTESUNATE], the inhibition result (in [1]; in [2]; in the data set on BV-2 [4]; with BV-2 [8]; in the data set with BV-2 [14]; in data set [15]) was “Active” in each case. Moreover, the inhibition result (in the data set with BV-2 [16]; in data set [17]; with BV-2 [18]; in [19]; in the data set with BV-2 [20]; with BV-2 [21]) was “Active” throughout. Further, the Activity with BV-2 [3] was 44.4%; in the data set on BV-2 [5], 68.8%; in [6] it was “Non-toxic”; in the data set with BV-2 [9], 44.3%; in data set [10], 55%; in the data set on BV-2 [11] it was 56.4%. In addition, the Activity in [12] amounted to 38.8%; in data set [13], 35.4%. Besides, the inhibition result in the data set on BV-2 [7] was “Dose-dependent effect”.
